Experimental data: patent publication US6653289B1, “L-arabino-disaccharides of anthracyclines, processes for their preparation, and pharmaceutical compositions containing them” (Menarini Ricerche S.p.A., priority 1999, dated 2003)

Assays:
[1] = tested on: H460 (pulmonary carcinoma); assay: cytotoxicity in vitro on H460; format: cell-based; conditions: read-out: IC50, concentration necessary for 50% inhibition of diseased cells growth, 24-h exposure to the drug
Excerpt: (§1) (R8=H, R9=R10=R12=OH, R11=NH2) described in patent application WO 95/09173 on lines H460 (pulmonary carcinoma) and GLC-4 (pulmonary microcarcinoma).

[2] = tested on: GLC-4 (pulmonary microcarcinoma); assay: cytotoxicity in vitro on GLC-4; format: cell-based, human; conditions: read-out: IC50, concentration necessary for 50% inhibition of diseased cells growth, 24-h exposure to the drug
Excerpt: as §1

[3] = tested on: pulmonary microcytoma GLC-4; assay: activity in vivo on human tumour line implanted s.c. in naked mice; conditions: GLC-4 s.c. in naked mice, 6 mg/kg every 3-4 days, 5 cycles (total 30 mg/kg); for LCK (Log Cell Kill): T-C/DT×3.32; for TWI % (300 mg), Tumour Weight Inhibition %: determined 7-10 days after last treatment
Procedure: The activity in vivo of (Ia), compared with that of (V), was also evaluated on a human tumour line implanted s.c. in naked mice (pulmonary microcytoma GLC-4) after administration of 6 mg/kg of drug every 3-4 days, for 5 treatment cycles.
The results obtained are shown in Table 2, which reports the Tumour Weight Inhibition % (TWI% determined 7-10 days after the last treatment) and the Log Cell Kill [LCK in animals treated according to the formula: T-C/DT×3.32, where T and C are the days that tumours take to reach the significant weight fixed in each test. in treated animals (T) and in controls (C)].

| Compound | IC50 [1] | IC50 [2] | LCK (Log Cell Kill) [3] | TWI % (300 mg), Tumour Weight Inhibition % [3] |
| --- | --- | --- | --- | --- |
| C[C@@H]1O[C@@H](O[C@@H]2[C@H](C)O[C@@H](O[C@H]3C[C@](O)(C(=O)CO)Cc4c(O)c5c(c(O)c43)C(=O)c3ccccc3C5=O)C[C@@H]2O)C[C@H](N)[C@H]1O.Cl [Ia, 7-O-[2,6-dideoxy-4-O-(2,3,6-trideoxy-3-amino-α-L-arabino-hexopyranosyl)-α-L-lyxo-hexopyranosyl]-4-demethoxy-doxorubicinone chlorhydrate] | 10 nM | 11 nM | 1.1 | 93% |
| CC1OC(OC2C(O)CC(OC3CC(O)(C(=O)CO)Cc4c(O)c5c(c(O)c43)C(=O)c3ccccc3C5=O)OC2C)CC(N)C1O.Cl [V, 7-O-[2,6-dideoxy-4-O-(2,3,6-trideoxy-3-amino-α-L-lyxo-hexopyranosyl)-α-L-lyxo-hexopyranosyl]-4-demethoxy-doxorubicinone chlorhydrate] | 14 nM | 55 nM | 0.4 | 60% |
